For this assay, the target named is LRRK2 G2019S enzyme (Homo sapiens (Human), UniProt Q5S007, G2019S). The assay is described as follows: LRRK2 G2019S TR-FRET biochemical assay (LRRKtide substrate). To be noted: 134 μM ATP. Here is the method: Detection Reaction Conditions • 1× TR-FRET dilution buffer • 10 mM EDTA • 2 nM antibody • 23° C. reaction temperature • 10 μL total reaction volume
Compounds were prepared by initially diluting to 1 mM with DMSO. 35 μL of reference compound solution, 35 μL of test compound solution, and 35 μL HPE were successively added to the source plate (384-well assay plate, Labcyte). The plates were centrifuged at 2500 rpm for 1 minute and sealed in foil. […] The assay plate was centrifuged at 2500 rpm for 1 minute, and sealed with foil.
To perform the enzyme reaction, 5 μL of LRRKtide substrate and kinase mixture in assay buffer was added to all wells of the assay plate. The plate was centrifuged to concentrate the mixture at the bottom of the wells. The assay plate was incubated at 23° C. for 20 minutes. Following incubation, 5 μL of 2× ATP in assay buffer was added to each well, and plates were centrifuged to concentrate the mixture at the bottom of the wells. The plate was incubated at 23° C. for 60 minutes.
To perform the detection of the reaction, EDTA completely mixed in TR-FRET dilution buffer was added to antibody reagent. 10 μL of detection reagent was added to all wells of each well of the assay plate and the plate was centrifuged to concentrate the mixture at the bottom of the wells. The plate was then incubated at 23° C. for 60 minutes.
In general terms: In TR-FRET formats the signal depends on donor and acceptor labels being close together.

Molecules are shown by their SMILES. Where “and” joins values, the source holds several entries; their conditions need not be identical. Equal values may be shown once.

As usually defined, the IC50 is the midpoint of a concentration-inhibition curve. The low end stands for higher potency, the high end for lower potency.

Chain of LRRK2 G2019S enzyme (Q5S007 whole entry G2019S): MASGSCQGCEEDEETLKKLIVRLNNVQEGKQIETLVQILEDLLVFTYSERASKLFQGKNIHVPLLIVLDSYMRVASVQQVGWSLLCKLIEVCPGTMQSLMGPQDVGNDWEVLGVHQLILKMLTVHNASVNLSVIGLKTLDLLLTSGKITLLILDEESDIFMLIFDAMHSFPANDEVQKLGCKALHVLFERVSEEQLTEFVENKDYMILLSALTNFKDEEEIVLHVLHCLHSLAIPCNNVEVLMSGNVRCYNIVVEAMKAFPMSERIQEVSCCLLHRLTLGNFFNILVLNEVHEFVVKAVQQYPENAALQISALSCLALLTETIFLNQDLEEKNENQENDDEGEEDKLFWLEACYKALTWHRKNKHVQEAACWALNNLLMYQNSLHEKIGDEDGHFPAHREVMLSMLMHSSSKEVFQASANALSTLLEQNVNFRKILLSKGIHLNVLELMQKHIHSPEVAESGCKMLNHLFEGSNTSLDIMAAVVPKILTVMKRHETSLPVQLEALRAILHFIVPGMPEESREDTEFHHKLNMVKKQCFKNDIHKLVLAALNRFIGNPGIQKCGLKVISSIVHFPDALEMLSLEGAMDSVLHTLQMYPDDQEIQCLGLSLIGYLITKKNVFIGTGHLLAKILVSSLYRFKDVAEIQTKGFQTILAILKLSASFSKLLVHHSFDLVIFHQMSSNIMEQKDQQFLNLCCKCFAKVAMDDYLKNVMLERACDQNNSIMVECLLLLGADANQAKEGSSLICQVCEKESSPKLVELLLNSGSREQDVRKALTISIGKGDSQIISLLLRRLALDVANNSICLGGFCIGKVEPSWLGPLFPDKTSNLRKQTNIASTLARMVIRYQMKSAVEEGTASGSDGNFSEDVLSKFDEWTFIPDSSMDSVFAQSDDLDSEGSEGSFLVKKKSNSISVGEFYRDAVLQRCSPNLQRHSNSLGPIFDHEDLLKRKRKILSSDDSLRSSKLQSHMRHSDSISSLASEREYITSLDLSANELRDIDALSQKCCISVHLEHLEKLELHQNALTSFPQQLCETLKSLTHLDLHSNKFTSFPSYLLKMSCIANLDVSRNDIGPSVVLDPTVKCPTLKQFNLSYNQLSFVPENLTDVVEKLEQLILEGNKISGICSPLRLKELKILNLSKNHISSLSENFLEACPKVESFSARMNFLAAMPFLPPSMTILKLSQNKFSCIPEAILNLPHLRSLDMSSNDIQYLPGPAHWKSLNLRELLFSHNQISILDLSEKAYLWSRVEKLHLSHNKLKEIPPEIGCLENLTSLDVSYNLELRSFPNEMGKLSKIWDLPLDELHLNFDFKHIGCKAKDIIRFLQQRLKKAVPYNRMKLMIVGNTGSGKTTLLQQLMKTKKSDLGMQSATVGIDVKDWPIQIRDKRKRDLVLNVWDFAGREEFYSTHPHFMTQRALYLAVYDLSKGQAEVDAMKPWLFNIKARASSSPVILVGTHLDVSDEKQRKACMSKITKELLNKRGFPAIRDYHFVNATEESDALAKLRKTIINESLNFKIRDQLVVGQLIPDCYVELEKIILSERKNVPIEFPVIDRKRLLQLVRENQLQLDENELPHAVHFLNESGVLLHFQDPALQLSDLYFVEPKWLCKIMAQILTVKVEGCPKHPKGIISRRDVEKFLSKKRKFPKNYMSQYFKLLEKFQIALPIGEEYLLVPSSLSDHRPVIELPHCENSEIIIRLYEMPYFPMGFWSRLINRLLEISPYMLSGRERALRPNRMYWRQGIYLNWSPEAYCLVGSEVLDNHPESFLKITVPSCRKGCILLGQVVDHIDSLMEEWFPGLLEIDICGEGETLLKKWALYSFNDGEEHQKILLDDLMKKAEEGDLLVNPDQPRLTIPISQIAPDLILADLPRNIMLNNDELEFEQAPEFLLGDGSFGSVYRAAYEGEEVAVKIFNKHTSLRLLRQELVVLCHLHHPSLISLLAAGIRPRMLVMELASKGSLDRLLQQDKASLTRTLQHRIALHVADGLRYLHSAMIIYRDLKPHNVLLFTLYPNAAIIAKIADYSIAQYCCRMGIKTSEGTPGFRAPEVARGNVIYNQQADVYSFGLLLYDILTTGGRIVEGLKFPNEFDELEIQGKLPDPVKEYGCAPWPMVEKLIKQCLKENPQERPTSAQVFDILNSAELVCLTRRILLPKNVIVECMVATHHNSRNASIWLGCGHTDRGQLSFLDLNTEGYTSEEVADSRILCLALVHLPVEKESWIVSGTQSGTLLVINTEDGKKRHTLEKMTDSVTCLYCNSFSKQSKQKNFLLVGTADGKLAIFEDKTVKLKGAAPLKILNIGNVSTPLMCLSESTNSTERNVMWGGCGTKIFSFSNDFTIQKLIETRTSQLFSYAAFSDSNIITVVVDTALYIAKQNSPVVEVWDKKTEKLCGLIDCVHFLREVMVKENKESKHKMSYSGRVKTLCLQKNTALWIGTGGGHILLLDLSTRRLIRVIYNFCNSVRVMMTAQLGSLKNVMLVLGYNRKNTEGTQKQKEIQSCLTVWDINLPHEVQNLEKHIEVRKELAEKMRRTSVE

`CCNc1nc(Nc2cnn(-c3cnccn3)c2C2CC2)ncc1C(F)(F)F` [Compound 105, N2-(5-cyclopropyl-1-pyrazin-2-yl-pyrazol-4-yl)-N4-ethyl-5-(trifluoromethyl)pyrimidine-2,4-diamine] returned a half-maximal inhibitory concentration (IC50) of under 30 nM.
`CNc1nc(Nc2cc([C@@]34C[C@@H]3COC4=O)nn2C2CC2)ncc1C(F)(F)F` [Compound 163] came in with an IC50 of under 30 nM.
In turn, `CNc1nc(Nc2cn(C3(C)CCOC3=O)nc2C2CC2)ncc1C(F)(F)F` (single isomer, unassigned) [Compound 113] displayed a half-maximal inhibitory concentration (IC50) of under 30 nM.
The same measure for `[2H]C([2H])([2H])n1cnc(C(C)(C)n2cc(Nc3ncc(Br)c(OC)n3)c(C)n2)n1` [Compound 33]: under 30 nM.
In the case of `CCNc1nc(Nc2cc(C3(C)COC3)nn2C2CC2)ncc1Br` [Compound 148] it was under 30 nM; in that of `CNc1nc(Nc2cc(C3(C)CCn4ccnc43)nn2C2CC2)ncc1C(F)(F)F` (stereo not drawn) [Compound 178], under 30 nM; in that of `Cn1nc(C(C)(C)n2nccn2)cc1Nc1ncc(C(F)(F)F)c(NC2CC2)n1` [Compound 69], under 30 nM.
On to `CNc1nc(Nc2cn(C3C[C@@H]4C[C@@H]4C3)nc2C)ncc1C(F)(F)F` (stereo partly drawn) [Compound 3], for which the IC50 is under 30 nM.
With `[2H]C([2H])([2H])c1nn(C(C)(C)C#N)cc1Nc1ncc(C(F)(F)F)c(NC)n1` [Compound 62], the IC50 is under 30 nM.
`CCNc1nc(Nc2cc([C@@]3(C)CCOC3=O)nn2C2CC2)ncc1C(F)(F)F` [Compound 144, (3R)-3-[1-cyclopropyl-5-[[4-(ethylamino)-5-(trifluoromethyl)pyrimidin-2-yl]amino]pyrazol-3-yl]-3-methyl-tetrahydrofuran-2-one] gave a half-inhibitory concentration (IC50) of under 30 nM.
Consider `CCNc1nc(Nc2ccnn2[C@H]2C[C@H](n3nccn3)C2)ncc1C(F)(F)F` [Compound 182, N2-(1-((1R,3R)-3-(2H-1,2,3-triazol-2-yl)cyclobutyl)-1H-pyrazol-5-yl)-N4-ethyl-5-(trifluoromethyl)pyrimidine-2,4-diamine], for which the IC50 was under 30 nM.
In the case of `COc1nc(Nc2cnn(C3CCC3)c2C#N)ncc1Br` [Compound 37] it was under 30 nM; in that of `CNc1nc(Nc2c[nH]nc2C)ncc1C(F)(F)F` [Compound 109], under 30 nM.
For the molecule `COc1nc(Nc2cn(C3(C)CCNC3=O)nc2C)ncc1Br` (single isomer, unassigned) [Compound 64A], the IC50 is under 30 nM.
Turning to `CCNc1nc(Nc2cnn(-c3cnccn3)c2Cl)ncc1C(F)(F)F` [Compound 98], the IC50 was under 30 nM.
As to `CCNc1nc(Nc2cnn([C@H]3C[C@@H](C#N)C3)c2C)ncc1C(F)(F)F` [Compound 27], the IC50 was < 30 nM and 3.41 nM.
In turn, `CCNc1nc(Nc2cn(C(C)(C)c3nncs3)nc2C)ncc1C(F)(F)F` [Compound 85] displayed an IC50 of under 30 nM.
As to `CCNc1nc(Nc2cn(C(C)(C)C#N)nc2C)ncc1C(F)(F)F` [Compound 87], the IC50 is under 30 nM.
Turning to `Cc1nn(C(C)(C)C#N)cc1Nc1ncc(C(F)(F)F)c(NC2C3CC2C3)n1` (stereo not drawn) [Compound 5], the IC50 is under 30 nM.
Molecule `[2H]C([2H])([2H])N1CCC(n2cc(Nc3ncc(C(F)(F)F)c(NCC)n3)c(C)n2)(C([2H])([2H])[2H])C1=O` (stereo not drawn) [Compound 22] displayed an IC50 of under 30 nM.
In turn, `CNc1nc(Nc2cn(C3(C)CCOC3=O)nc2C)ncc1C(F)(F)F` (single isomer, unassigned) [Compound 124] showed an IC50 of under 30 nM.
With `CCNc1nc(Nc2cn(C3(C)CCCC3=O)nc2C)ncc1C(F)(F)F` (stereo not drawn) [Compound 194, 2-[4-[[4-(ethylamino)-5-(trifluoromethyl)pyrimidin-2-yl]amino]-3-methyl-pyrazol-1-yl]-2-methyl-cyclopentanone], the half-maximal inhibitory concentration (IC50) was under 30 nM.
In the case of `CNc1nc(Nc2cn(C3CC3)nc2[C@H]2C[C@H](n3nccn3)C2)ncc1C(F)(F)F` [Compound 198] it was under 30 nM; in that of `CCNc1nc(Nc2ccnn2[C@H]2C[C@@H](O)C2)ncc1C(F)(F)F` [Compound 179], under 30 nM.
The molecule `CCNc1nc(Nc2cn([C@H]3C[C@H](C#N)C3)nc2C)ncc1C(F)(F)F` [Compound 35A] came in with an IC50 of under 30 nM.
Molecule `CCNc1nc(Nc2cc(C(=O)N(C)C)nn2C2CC2)ncc1C(F)(F)F` [Compound 130] showed an IC50 of under 30 nM.
`CCNc1nc(Nc2ccnn2[C@H]2C[C@H](F)C2)ncc1C(F)(F)F` [Compound 190] displayed an IC50 of under 30 nM.
Consider `CNc1nc(Nc2cc(C3(C)CCOC3=O)nn2C2CC2)ncc1C(F)(F)F` (stereo not drawn) [Compound 156], for which the IC50 was under 30 nM.
As for `[2H]C([2H])([2H])c1nn(C(C#N)(C([2H])([2H])[2H])C([2H])([2H])[2H])cc1Nc1ncc(C(F)(F)F)c(NC([2H])([2H])C([2H])([2H])[2H])n1` [Compound 74], the IC50 is under 30 nM.
In the case of `CCNc1nc(Nc2cn(C3(C)CCOC3=O)nc2Cl)ncc1C(F)(F)F` (single isomer, unassigned) [Compound 117] it was under 30 nM.
The same measure for `CNc1nc(Nc2cc(C(C)(C)c3ncccn3)nn2C2CC2)ncc1C(F)(F)F` [Compound 128]: under 30 nM.
As for `[2H]C([2H])([2H])n1nc(C(C)(C)n2nccn2)cc1Nc1ncc(Br)c(NC2CC2)n1` [Compound 79], the half-inhibitory concentration (IC50) is under 30 nM.
Molecule `CCNc1nc(Nc2cnn(C3CCC3)c2C#N)ncc1Br` [Compound 58] returned an IC50 of under 30 nM.
Turning to `[2H]C([2H])([2H])c1nn(C(C#N)(C([2H])([2H])[2H])C([2H])([2H])[2H])cc1Nc1ncc(C(F)(F)F)c(NCC(F)F)n1` [Compound 46], the IC50 is under 30 nM.
As for `[2H]C([2H])([2H])N1CCC(n2cc(Nc3ncc(C(F)(F)F)c(NCC)n3)c(C)n2)(C([2H])([2H])[2H])C1=O` (single isomer, unassigned) [Compound 23], the IC50 is under 30 nM.
Molecule `CNc1nc(Nc2cc([C@]34C[C@H]3COC4=O)nn2C2CC2)ncc1C(F)(F)F` [Compound 168] displayed a 50% inhibitory concentration (IC50) of under 30 nM.
In turn, `CCNc1nc(Nc2cc(C3(C)CCn4ccnc43)nn2C2CC2)ncc1C(F)(F)F` (stereo not drawn) [Compound 167] gave an IC50 of under 30 nM.
In the case of `CNc1nc(Nc2cn(CC34CC(C#N)(C3)C4)nc2C)ncc1C(F)(F)F` [Compound 6] it was over 60 nM; in that of `CCNc1nc(Nc2cnn3c2CC(n2ccnn2)C3)ncc1C(F)(F)F` (stereo not drawn) [Compound 61], under 30 nM.
In turn, `CCNc1nc(Nc2cnn3c2CC(n2nccn2)C3)ncc1C(F)(F)F` (single isomer, unassigned) [Compound 54A] yielded an IC50 of under 30 nM.
In the case of `CNc1nc(Nc2cn(C3(C)CCOC3=O)nc2C)ncc1C(F)(F)F` (single isomer, unassigned) [Compound 119] it was under 30 nM; in that of `CCNc1nc(Nc2cn([C@H]3C[C@@H](C#N)C3)nc2C)ncc1C(F)(F)F` [Compound 35B], under 30 nM; in that of `[2H]C([2H])([2H])C([2H])([2H])n1nc(C(C)(C)n2nccn2)cc1Nc1ncc(C(F)(F)F)c(NCC)n1` [Compound 88], under 30 nM.
In the case of `[2H]C([2H])([2H])C(C#N)(n1cc(Nc2ncc(C(F)(F)F)c(NC)n2)c(C)n1)C([2H])([2H])[2H]` [Compound 80] it was under 30 nM.
The same measure for `[2H]C([2H])([2H])n1nc(C2(C)CCOC2=O)cc1Nc1ncc(C(F)(F)F)c(NC)n1` (stereo not drawn) [Compound 176]: under 30 nM.

The record behind these values is US9932325B2 (Denali Therapeutics Inc., priority 2015, dated 2018).
